# From patent publication US20210317112A1, “HETEROCYCLIC COMPOUNDS AS PESTICIDES” (Bayer Aktiengesellschaft, priority 2017, published 2021)
# Where two headings read alike, the source gives them in different places.
# What was measured:
# Format in all cases: in vivo
# [1] = tested on: mustard beetle larvae (Phaedon cochleariae); experiment: Phaedon cochleariae spray test; details: in Brassica rapa, foliar, 168 h, read-out: mortality in %
# Method: Phaedon cochleariae—Spray Test Solvent: 78.0 parts by weight of acetone • • 1.5 parts by weight of dimethylformamide Emulsifier: alkylarylpolyglycol ether
# (§1) To produce a suitable preparation of active compound, 1 part by weight of active compound is mixed with the stated amount of solvents and is diluted with water, containing an emulsifier concentration of 1000 ppm, to the desired concentration. Further test concentrations are prepared by dilution with emulsifier containing water.
# Chinese cabbage (Brassica pekinensis) leaf disks are sprayed with a preparation of the active ingredient of the desired concentration. Once dry, the leaf disks are infested with mustard beetle larvae (Phaedon cochleariae).
# After 7 days mortality in % is determined. 100% means all beetle larvae have been killed and 0% means none of the beetle larvae have been killed.
# [2] = tested on: brown planthopper (Nilaparvata lugens); experiment: Nilaparvata lugens spray test (solvent 52.5 acetone / 7 DMF); details: 96 h, application rate 500 g/ha, rice plants, after 4 days
# Method: Nilaparvata lugens—Spray Test Solvent: 52.5 parts by weight of acetone • 7 parts by weight of dimethylformamide Emulsifier: alkylaryl polyglycolether
# as §1, with “water. Ammonium salt and/or penetration enhancer in a dosage of 1000 ppm are added to the desired concentration if necessary.” for “water.”
# Rice plants (Oryza sativa) are treated by being sprayed with the desired concentration of the active compound and are infested with larvae of the brown planthopper (Nilaparvata lugens).
# (§2) After 4 days mortality in % is determined. 100% means all planthoppers have been killed and 0% means none of the planthoppers have been killed.
# [3] = tested on: two spotted spidermite (Tetranychus urticae); experiment: whole plant or invertebrate; details: in Phaseolus vulgaris, foliar, 144 h, read-out: mortality in %
# Method: Tetranychus urticae—Spray Test OP-Resistant Solvent: 78.0 parts by weight acetone • 1.5 parts by weight dimethylformamide Emulsifier: alkylarylpolyglycol ether
# as §1
# French bean (Phaseolus vulgaris) leaf disks infected with all instars of the two spotted spidermite (Tetranychus urticae), are sprayed with a preparation of the active ingredient of the desired concentration.
# After 6 days mortality in % is determined. 100% means all spider mites have been killed and 0% means none of the spider mites have been killed.
# [4] = tested on: southern green stink bug (Nezara viridula); experiment: whole plant or invertebrate; details: in Hordeum vulgare, 96 h, read-out: mortality in %
# Method: Nezara viridula—Spray Test Solvent: 52.5 parts by weight of acetone • 7 parts by weight of dimethylformamide Emulsifier: alkylaryl polyglycolether
# To produce a suitable preparation of active compound, 1 part by weight of active compound is mixed with the stated amount of solvent, and the concentrate is diluted with water, containing an emulsifier concentration of 1000 ppm, to the desired concentration. Ammonium salt and/or penetration enhancer in a dosage of 1000 ppm are added to the desired concentration if necessary.
# (§3) Barley plants (Hordeum vulgare) infested with larvae of the southern green stink bug (Nezara viridula) are sprayed with a test solution containing the desired concentration of the active ingredient.
# (§4) After 4 days mortality in % is determined. 100% means all the stink bugs have been killed; 0% means none of the stink bugs have been killed.
# [5] = tested on: green peach aphid (Myzus persicae); experiment: Myzus persicae spray test; details: in Brassica rapa, foliar, 120 h, read-out: mortality in %
# Method: Myzus persicae—spray test Solvent: 78.0 parts by weight acetone • 1.5 parts by weight dimethylformamide Emulsifier: alkylarylpolyglycol ether
# as §1
# Chinese cabbage (Brassica pekinensis) leaf disks infected with all instars of the green peach aphid (Myzus persicae), are sprayed with a preparation of the active ingredient of the desired concentration.
# (§5) After 5 days mortality in % is determined. 100% means all aphids have been killed and 0% means none of the aphids have been killed.
# [6] = tested on: green peach aphid (Myzus persicae); experiment: whole plant or invertebrate; details: po, 120 h, read-out: mortality in %
# Method: Myzus persicae—Oral Test Solvent: 100 parts by weight acetone
# To produce a suitable preparation of active compound, 1 part by weight of active compound is mixed with the stated amount of solvent, and the concentrate is diluted with water to the desired concentration. 50 μl compound solution is filled in microtiter plates and 150 μl IPL41 insect medium (33%+15% sugar) is added to obtain a total volume of 200 μper well. Afterwards the plates are sealed with parafilm through which a mixed population of the green peach aphid (Myzus persicae) can suck on the compound preparation.
# as §5
# [7] = tested on: southern green stink bug (Nezara viridula); experiment: whole plant or invertebrate; details: in Hordeum vulgare, 96 h, read-out: mortality in %; remark: listed apart in the source
# Method: Nezara viridula—Spray Test Solvent: 78.0 parts by weight of acetone • • 1.5 parts by weight of dimethylformamide Emulsifier: alkylarylpolyglycol ether
# as §1, with “solvent,” for “solvents”, “and the concentrate” for “and”
# as §3, §4
# [8] = tested on: brown planthopper (Nilaparvata lugens); experiment: Nilaparvata lugens spray test (solvent 78.0 acetone / 1.5 DMF); details: 96 h, application rate 500 g/ha, rice plants, after 4 days
# Method: Nilaparvata lugens—Spray Test Solvent: 78.0 parts by weight of acetone • • 1.5 parts by weight of dimethylformamide Emulsifier: alkylarylpolyglycol ether
# as §1
# Rice plants (Oryza sativa) are sprayed with a preparation of the active ingredient of the desired concentration and the plants are infested with the brown planthopper (Nilaparvata lugens).
# as §2
SMILES,mortality at 100 g/ha [1] [%],mortality at 500 g/ha [1] [%],mortality at 500 g/ha [2] [%],mortality at 100 g/ha [3] [%],mortality at 500 g/ha [3] [%],mortality at 100 g/ha [4] [%],mortality at 500 g/ha [4] [%],mortality at 500 g/ha [5] [%],mortality at 20 ppm [6] [%],mortality at 500 g/ha [7] [%],mortality at 500 g/ha [8] [%]
"N#Cc1sc(NC(=O)c2cccnc2C(F)(F)F)nc1-c1ccccc1C(F)(F)F [Compound I-3-2, N-{5-Cyano-4-[2-(trifluoromethyl)phenyl]-1,3-thiazol-2-yl}-2-(trifluoromethyl)nicotinamide]",100,100,100,100,100,100,100,,,,
"O=C(Nc1nc(-c2c(F)cccc2F)no1)c1cccnc1C(F)(F)F [Compound I-1-1, N-[3-(2,6-Difluorophenyl)-1,2,4-oxadiazol-5-yl]-2-(trifluoromethyl)nicotinamide]",100,100,80,,70,100,100,,,,
"O=C(Nc1nc(-c2c(F)ccc(Br)c2F)no1)c1cccnc1C(F)(F)F [Compound I-1-12, N-[3-(3-bromo-2,6-difluorophenyl)-1,2,4-oxadiazol-5-yl]-2-(trifluoromethyl)nicotinamide]",100,83,,100,100,,,,,,
"N#Cc1c(-c2ccccc2Cl)nsc1NC(=O)c1cccnc1Cl [Compound I-2-6, 2-Chloro-N-[3-(2-chlorophenyl)-4-cyano-1,2-thiazol-5-yl]nicotinamide]",,83,,,70,,100,100,,,
"N#Cc1c(-c2c(F)cccc2F)nsc1NC(=O)c1cccnc1C(F)(F)F [Compound I-2-1, N-[4-Cyano-3-(2,6-difluorophenyl)-1,2-thiazol-5-yl]-2-(trifluoromethyl)nicotinamide]",,100,,,,100,100,,90,100,
"N#Cc1c(-c2ccccc2C(F)(F)F)nsc1NC(=O)c1cccnc1Cl [Compound I-2-7, 2-Chloro-N-{4-cyano-3-[2-(trifluoromethyl)phenyl]-1,2-thiazol-5-yl}nicotinamide]",,100,,90,90,,100,,,,
"O=C(Nc1nc(-c2ccccc2C(F)(F)F)no1)c1cccnc1C(F)(F)F [Compound I-1-8, 2-(trifluoromethyl)-N-{3-[2-(trifluoromethyl)phenyl]-1,2,4-oxadiazol-5-yl}nicotinamide]",,100,,100,100,,,,,90,100
